Assay results as given in patent publication US4871852A, “Quinoline-carboxylic acid derivatives” (Daiichi Seiyaku Co., Ltd., priority 1984, dated 1989).
In brackets after ≈: the same amount, converted by molar mass. Like-named read-outs stand apart in the source and are kept apart here.

Key:
[1] = test system: Escherichia coli NIHJ; experiment: Minimum Inhibitory Concentration (standard method of the Japan Society of Chemotherapy); type: cell-based; settings: Muller-Hinton bouillon, 10^6/ml bacteria, 37° C., 18 hours
Protocol: (§1) Determined by the standard method of the Japan Society of Chemotherapy: i
(§2) MullerHinton bouillon, 10^6 /ml of bacteria were seeded and incubated
(§3) at 37° C. for 18 hours.

[2] = test system: Proteus vulgaris 3167; experiment: as above; type: cell-based; settings: read-out: Minimum Inhibitory Concentration (MIC)
Protocol: as §1, §2, §3

[3] = test system: Pseudomonas aeruginosa 2131; experiment: as above; type: cell-based; settings: read-out: Minimum Inhibitory Concentration (MIC)
Protocol: as §1, §2, §3

[4] = test system: Pseudomonas cepacia IID 1340; experiment: as above; type: cell-based; settings: Burkholderia cepacia, read-out: Minimum Inhibitory Concentration (MIC)
Protocol: as §1, §2, §3

[5] = test system: Pseudomonas maltophilia IID 1275; experiment: as above; type: cell-based; settings: Stenotrophomonas maltophilia, read-out: Minimum Inhibitory Concentration (MIC)
Protocol: as §1, §2, §3

[6] = test system: Serratia marcessens 13001; experiment: as above; type: cell-based; settings: Muller-Hinton bouillon, 10^6/ml bacteria, 37° C., 18 hours
Protocol: as §1, §2, §3

[7] = test system: Staphylococcus aureus Smith; experiment: as above; type: cell-based; settings: read-out: Minimum Inhibitory Concentration (MIC)
Protocol: as §1, §2, §3

[8] = test system: Staphylococcus epidermidis 56556; experiment: as above; type: cell-based; settings: read-out: Minimum Inhibitory Concentration (MIC)
Protocol: as §1, §2, §3

[9] = test system: Streptococcus faecalis ATCC 19433; experiment: as above; type: cell-based; settings: Enterococcus faecalis, read-out: Minimum Inhibitory Concentration (MIC)
Protocol: as §1, §2, §3

[10] = test system: gram-positive and gram-negative bacteria; experiment: antibacterial activity (statement in words); type: cell-based
[11] = pharmacokinetic properties: blood level, intestinal absorption (statement in words); type: in vivo; settings: in comparison with cyprofloxacin
[12] = Proteus vulgaris 3167, Muller-Hinton bouillon, 10^6/ml bacteria, 37° C., 18 hours
[13] = Pseudomonas aeruginosa 2131, Muller-Hinton bouillon, 10^6/ml bacteria, 37° C., 18 hours
[14] = IID1340, Pseudomonas cepacia IID 1340, Muller-Hinton bouillon, 10^6/ml bacteria, 37° C., 18 hours
[15] = IID1275, Pseudomonas maltophilia IID 1275, Muller-Hinton bouillon, 10^6/ml bacteria, 37° C., 18 hours
[16] = Staphylococcus aureus Smith, Muller-Hinton bouillon, 10^6/ml bacteria, 37° C., 18 hours
[17] = Staphylococcus epidermidis 56556, Muller-Hinton bouillon, 10^6/ml bacteria, 37° C., 18 hours
[18] = ATCC19433, Streptococcus faecalis ATCC 19433, Muller-Hinton bouillon, 10^6/ml bacteria, 37° C., 18 hours

SMILES | MIC [1] | MIC [2, 12] | MIC [3, 13] | MIC [4, 14] | MIC [5, 15] | MIC [6] | MIC [7, 16] | MIC [8, 17] | MIC [9, 18] | antibacterial activity [10] | blood level [11] | intestinal absorption [11] | MIC ([2]; Proteus vulgaris, 3167, 18 h) | MIC ([3]; Pseudomonas aeruginosa, 2131, 18 h) | MIC ([4]; IID1340, 18 h) | MIC ([5]; IID1275, 18 h) | MIC ([7]; Staphylococcus aureus, 18 h) | MIC ([8]; Staphylococcus epidermidis, 56556, 18 h) | MIC ([9]; ATCC19433, 18 h)
CN1CCN(c2cc3c(cc2F)c(=O)c(C(=O)O)cn3[C@@H]2C[C@@H]2F)CC1 (relative stereo) [Ia-1, 1-(cis-2-fluorocyclopropyl)-6-fluoro-1,4-dihydro-7-(4-methyl-1-piperazinyl)-4-oxoquinoline-3-carboxylic acid] | ≤ 0.05 µg/mL | ≤ 0.05 µg/mL | 0.2 µg/mL (≈ 0.55 µM) | 0.2 µg/mL (≈ 0.55 µM) | 0.2 µg/mL (≈ 0.55 µM) | ≤ 0.05 µg/mL | ≤ 0.05 µg/mL | 0.1 µg/mL (≈ 0.275 µM) | 0.78 µg/mL (≈ 2.15 µM) | strong antibacterial activity | high blood level | good intestinal absorption | – | – | – | – | – | – | –
O=C(O)c1cn([C@@H]2C[C@@H]2F)c2cc(N3CCNCC3)c(F)cc2c1=O (relative stereo) [Ia-2, 1-(cis-2-fluorocyclopropyl)-6-fluoro-1,4-dihydro-7-(1-piperazinyl)-4-oxoquinoline-3-carboxylic acid] | ≤ 0.05 µg/mL | ≤ 0.05 µg/mL | ≤ 0.05 µg/mL | 1.56 µg/mL (≈ 4.47 µM) | 0.78 µg/mL (≈ 2.23 µM) | ≤ 0.05 µg/mL | 0.1 µg/mL (≈ 0.286 µM) | 0.2 µg/mL (≈ 0.573 µM) | 1.56 µg/mL (≈ 4.47 µM) | – | – | – | – | – | – | – | – | – | –
CN1CCN(c2c(F)cc3c(=O)c(C(=O)O)cn([C@@H]4C[C@@H]4F)c3c2F)CC1 (relative stereo) [Ib-1, 1-(2-fluorocyclopropyl)-6,8-difluoro-1,4-dihydro-7-(4-methyl-1-piperazinyl)-4-oxoquinoline-3-carboxylic acid] | ≤ 0.05 µg/mL | ≤ 0.05 µg/mL | 0.1 µg/mL (≈ 0.262 µM) | 0.78 µg/mL (≈ 2.05 µM) | 0.1 µg/mL (≈ 0.262 µM) | ≤ 0.05 µg/mL | 0.1 µg/mL (≈ 0.262 µM) | 0.2 µg/mL (≈ 0.524 µM) | 0.78 µg/mL (≈ 2.05 µM) | – | – | – | – | – | – | – | – | – | –
O=C(O)c1cn([C@@H]2C[C@@H]2F)c2c(F)c(N3CCNCC3)c(F)cc2c1=O (relative stereo) [Ib-2, 1-(2-fluorocyclopropyl)-6,8-difluoro-1,4-dihydro-7-(1-piperazinyl)-4-oxoquinoline-3-carboxylic acid] | ≤ 0.05 µg/mL | ≤ 0.05 µg/mL | ≤ 0.05 µg/mL | 1.56 µg/mL (≈ 4.25 µM) | 0.78 µg/mL (≈ 2.12 µM) | ≤ 0.05 µg/mL | 0.1 µg/mL (≈ 0.272 µM) | 0.2 µg/mL (≈ 0.544 µM) | 1.56 µg/mL (≈ 4.25 µM) | – | – | – | – | – | – | – | – | – | –
CN1CCN(c2cc3c(cc2F)c(=O)c(C(=O)O)cn3C2CC2)CC1 [Ba-1, 1cyclopropyl-6-fluoro-1,4-dihydro-7-(4-methyl-1-piperazinyl)-4-oxoquinoline-3-carboxylic acid, reference compound] | ≤ 0.05 µg/mL | ≤ 0.05 µg/mL | 0.1 µg/mL (≈ 0.29 µM) | 0.78 µg/mL (≈ 2.26 µM) | 0.2 µg/mL (≈ 0.579 µM) | 0.1 µg/mL (≈ 0.29 µM) | 0.2 µg/mL (≈ 0.579 µM) | 0.39 µg/mL (≈ 1.13 µM) | 0.78 µg/mL (≈ 2.26 µM) | – | – | – | – | – | – | – | – | – | –
O=C(O)c1cn(C2CC2)c2cc(N3CCNCC3)c(F)cc2c1=O [Ba-2, 1-cyclopropyl-6-fluoro-1,4-dihydro-7-(1-piperazinyl)-4-oxoquinoline-3-carboxylic acid, reference compound] | ≤ 0.05 µg/mL | – | – | – | – | ≤ 0.05 µg/mL | – | – | – | – | – | – | ≤ 0.05 µg/mL | ≤ 0.05 µg/mL | 3.13 µg/mL (≈ 9.45 µM) | 0.78 µg/mL (≈ 2.35 µM) | 0.1 µg/mL (≈ 0.302 µM) | 0.2 µg/mL (≈ 0.604 µM) | 0.78 µg/mL (≈ 2.35 µM)
CN1CCN(c2c(F)cc3c(=O)c(C(=O)O)cn(C4CC4)c3c2F)CC1 [Ba-3, 1cyclopropyl-6,8-difluoro-1,4-dihydro-7-(4-methyl-1-piperazinyl)-4-oxoquinoline-3-carboxylic acid, reference compound] | ≤ 0.05 µg/mL | ≤ 0.05 µg/mL | 0.2 µg/mL (≈ 0.55 µM) | 0.78 µg/mL (≈ 2.15 µM) | ≤ 0.05 µg/mL | ≤ 0.05 µg/mL | 0.2 µg/mL (≈ 0.55 µM) | 0.2 µg/mL (≈ 0.55 µM) | 0.78 µg/mL (≈ 2.15 µM) | – | – | – | – | – | – | – | – | – | –
O=C(O)c1cn(C2CC2)c2c(F)c(N3CCNCC3)c(F)cc2c1=O [Ba-4, 1cyclopropyl-6,8-difluoro-1,4-dihydro-7-(1-piperazinyl)-4-oxoquinoline-3-carboxylic acid, reference compound] | ≤ 0.05 µg/mL | ≤ 0.05 µg/mL | ≤ 0.05 µg/mL | 0.39 µg/mL (≈ 1.12 µM) | 0.39 µg/mL (≈ 1.12 µM) | ≤ 0.05 µg/mL | 0.2 µg/mL (≈ 0.573 µM) | 0.2 µg/mL (≈ 0.573 µM) | 0.78 µg/mL (≈ 2.23 µM) | – | – | – | – | – | – | – | – | – | –
